Results as given in ChEMBL document CHEMBL3862033 (J Med Chem, 2016).

Biological target: 5-hydroxytryptamine receptor 6 (Homo sapiens) (UniProt P50406)
Experiment: Displacement of [3H]LSD from human 5-HT6 receptor expressed in HEK cell membranes at 10 uM incubated for 90 mins under dark condition by microbeta scintillation counting method relative to control
Conditions: HEK293

Chain of 5-hydroxytryptamine receptor 6 (Homo sapiens) (P50406 whole entry): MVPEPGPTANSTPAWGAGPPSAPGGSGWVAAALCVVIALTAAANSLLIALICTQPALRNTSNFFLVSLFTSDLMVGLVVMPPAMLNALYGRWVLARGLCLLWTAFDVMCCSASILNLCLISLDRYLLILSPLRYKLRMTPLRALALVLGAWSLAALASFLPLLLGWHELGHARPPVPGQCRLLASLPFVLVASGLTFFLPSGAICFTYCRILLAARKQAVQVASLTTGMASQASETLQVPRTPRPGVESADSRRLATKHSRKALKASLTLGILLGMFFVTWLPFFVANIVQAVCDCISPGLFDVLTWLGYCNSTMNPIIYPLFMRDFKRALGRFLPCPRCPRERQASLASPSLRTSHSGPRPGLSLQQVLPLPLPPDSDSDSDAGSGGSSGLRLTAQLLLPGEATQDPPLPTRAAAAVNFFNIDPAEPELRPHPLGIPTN

| Structure (SMILES) | inhibition [%] |
| --- | --- |
| CN(C)c1nc(Cl)nc2c1ncn2[C@H]1[C@H](O)[C@H](O)[C@]2(CO)C[C@H]12 | < 50 |
| Clc1cccc(CNc2nc(Cl)nc3[nH]cnc23)c1 | < 50 |

Biological target: T1, Adenosine receptor A1 (Homo sapiens) (UniProt P30542)
T1 sequence (whole entry): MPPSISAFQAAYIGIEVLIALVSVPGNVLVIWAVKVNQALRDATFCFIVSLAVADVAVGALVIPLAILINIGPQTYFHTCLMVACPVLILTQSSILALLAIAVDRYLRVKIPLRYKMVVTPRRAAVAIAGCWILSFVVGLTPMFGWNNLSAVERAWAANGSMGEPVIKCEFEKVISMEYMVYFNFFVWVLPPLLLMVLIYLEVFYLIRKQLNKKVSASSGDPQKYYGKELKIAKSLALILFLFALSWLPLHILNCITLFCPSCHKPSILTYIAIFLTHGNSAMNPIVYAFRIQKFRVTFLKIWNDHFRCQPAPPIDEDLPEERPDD
Experiment: Displacement of [3H]N6-phenylisopropyladenosine from recombinant human A1AR expressed in CHO cell membranes at 10 uM after 60 mins by liquid scintillation counting method relative to control
Conditions: not given

| Structure (SMILES) | inhibition [%] |
| --- | --- |
| CN(C)c1nc(Cl)nc2c1ncn2[C@H]1[C@H](O)[C@H](O)[C@]2(CO)C[C@H]12 | 11 |
| Clc1cccc(CNc2nc(Cl)nc3[nH]cnc23)c1 | 45 |

Biological target: 5-hydroxytryptamine receptor 1D (Homo sapiens) (UniProt P28221)
Experiment: Displacement of [3H]5-CT from human 5-HT1D receptor expressed in HEK-T cell membranes at 10 uM incubated for 90 mins under dark condition by microbeta scintillation counting method relative to control
Conditions: not given

Chain of 5-hydroxytryptamine receptor 1D (Homo sapiens) (P28221 whole entry): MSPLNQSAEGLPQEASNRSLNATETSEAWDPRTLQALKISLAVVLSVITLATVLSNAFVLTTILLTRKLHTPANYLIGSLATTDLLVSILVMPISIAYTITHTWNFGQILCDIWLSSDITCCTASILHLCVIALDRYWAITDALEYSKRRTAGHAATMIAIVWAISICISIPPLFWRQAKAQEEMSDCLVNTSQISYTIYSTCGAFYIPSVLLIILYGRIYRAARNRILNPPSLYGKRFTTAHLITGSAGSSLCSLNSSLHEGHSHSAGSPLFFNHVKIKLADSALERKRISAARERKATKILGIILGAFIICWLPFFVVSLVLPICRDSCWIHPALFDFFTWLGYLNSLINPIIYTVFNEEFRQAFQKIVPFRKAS

| Structure (SMILES) | inhibition [%] |
| --- | --- |
| CN(C)c1nc(Cl)nc2c1ncn2[C@H]1[C@H](O)[C@H](O)[C@]2(CO)C[C@H]12 | < 50 |
| Clc1cccc(CNc2nc(Cl)nc3[nH]cnc23)c1 | < 50 |

Biological target: T2, 5-hydroxytryptamine receptor 2B (Homo sapiens, UniProt P41595)
Experiment: not given
Conditions: HEK293, at 10 µM

T2 sequence (P41595 whole entry): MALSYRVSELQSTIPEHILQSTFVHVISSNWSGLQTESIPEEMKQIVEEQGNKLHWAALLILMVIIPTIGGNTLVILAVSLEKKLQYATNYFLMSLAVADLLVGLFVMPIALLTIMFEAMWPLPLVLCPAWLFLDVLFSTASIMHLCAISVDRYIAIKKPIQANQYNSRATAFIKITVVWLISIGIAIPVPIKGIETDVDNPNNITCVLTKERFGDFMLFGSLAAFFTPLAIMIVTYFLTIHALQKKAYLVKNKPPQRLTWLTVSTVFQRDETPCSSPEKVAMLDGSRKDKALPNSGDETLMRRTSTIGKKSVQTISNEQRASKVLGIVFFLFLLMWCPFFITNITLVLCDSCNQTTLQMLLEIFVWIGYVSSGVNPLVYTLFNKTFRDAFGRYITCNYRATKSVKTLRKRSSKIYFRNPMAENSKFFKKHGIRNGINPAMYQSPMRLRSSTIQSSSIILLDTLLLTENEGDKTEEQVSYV

| Structure (SMILES) | inhibition [%] |
| --- | --- |
| CN(C)c1nc(Cl)nc2c1ncn2[C@H]1[C@H](O)[C@H](O)[C@]2(CO)C[C@H]12 | > 50 |
| Clc1cccc(CNc2nc(Cl)nc3[nH]cnc23)c1 | > 50 |

Biological target: 5-hydroxytryptamine receptor 5A (Homo sapiens) (UniProt P47898)
Experiment: Displacement of [3H]LSD from human 5-HT5A receptor expressed in Flp-In-CHO cell membranes incubated for 90 mins under dark condition by microbeta scintillation counting method relative to control
Set-up: concentration or dose not given beside the values
Conditions: not given

Chain of 5-hydroxytryptamine receptor 5A (Homo sapiens) (P47898 whole entry): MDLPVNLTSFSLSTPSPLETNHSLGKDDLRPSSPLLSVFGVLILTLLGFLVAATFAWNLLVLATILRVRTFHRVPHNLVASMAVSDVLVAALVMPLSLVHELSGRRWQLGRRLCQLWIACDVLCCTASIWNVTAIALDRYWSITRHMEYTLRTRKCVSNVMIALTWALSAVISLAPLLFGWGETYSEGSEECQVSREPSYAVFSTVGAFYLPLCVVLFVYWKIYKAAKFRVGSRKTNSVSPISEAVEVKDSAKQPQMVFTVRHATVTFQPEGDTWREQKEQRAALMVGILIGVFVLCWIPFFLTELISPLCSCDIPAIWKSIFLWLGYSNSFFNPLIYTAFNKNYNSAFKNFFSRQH

| Structure (SMILES) | inhibition [%] |
| --- | --- |
| CN(C)c1nc(Cl)nc2c1ncn2[C@H]1[C@H](O)[C@H](O)[C@]2(CO)C[C@H]12 | < 50 |
| Clc1cccc(CNc2nc(Cl)nc3[nH]cnc23)c1 | < 50 |

Biological target: T2, 5-hydroxytryptamine receptor 2B
Experiment: biochemical
Assay type: cell-based, HEK293
Conditions: not given

| Structure (SMILES) | Ki [µM] |
| --- | --- |
| CN(C)c1nc(Cl)nc2c1ncn2[C@H]1[C@H](O)[C@H](O)[C@]2(CO)C[C@H]12 | 4.8 |
| Clc1cccc(CNc2nc(Cl)nc3[nH]cnc23)c1 | 2.16 |

Biological target: T3, 5-hydroxytryptamine receptor 2A (Homo sapiens, UniProt P28223)
Experiment: Displacement of [3H]ketanserin from human 5-HT2A receptor expressed in HEK-T cell membranes at 10 uM incubated for 90 mins under dark condition by microbeta scintillation counting method relative to control
Conditions: not given

T3 sequence (P28223 whole entry): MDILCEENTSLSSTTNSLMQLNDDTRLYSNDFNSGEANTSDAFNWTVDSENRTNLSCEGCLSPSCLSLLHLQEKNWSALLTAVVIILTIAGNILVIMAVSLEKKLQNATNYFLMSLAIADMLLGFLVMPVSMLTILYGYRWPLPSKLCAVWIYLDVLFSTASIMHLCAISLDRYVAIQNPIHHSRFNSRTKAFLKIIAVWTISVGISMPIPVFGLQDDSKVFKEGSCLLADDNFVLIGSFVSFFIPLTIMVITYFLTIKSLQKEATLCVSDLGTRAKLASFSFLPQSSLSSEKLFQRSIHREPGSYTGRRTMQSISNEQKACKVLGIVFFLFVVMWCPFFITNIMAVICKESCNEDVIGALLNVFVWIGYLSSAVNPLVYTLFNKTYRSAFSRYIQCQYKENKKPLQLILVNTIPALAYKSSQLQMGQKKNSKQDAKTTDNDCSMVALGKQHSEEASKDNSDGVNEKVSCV

| Structure (SMILES) | inhibition [%] |
| --- | --- |
| CN(C)c1nc(Cl)nc2c1ncn2[C@H]1[C@H](O)[C@H](O)[C@]2(CO)C[C@H]12 | < 10 |
| Clc1cccc(CNc2nc(Cl)nc3[nH]cnc23)c1 | 26 |

Biological target: T3, 5-hydroxytryptamine receptor 2A
Experiment: Displacement of [3H]ketanserin from human 5-HT2A receptor expressed in HEK-T cell membranes incubated for 90 mins under dark condition by microbeta scintillation counting method
Conditions: not given

| Structure (SMILES) | Ki [µM] |
| --- | --- |
| CN(C)c1nc(Cl)nc2c1ncn2[C@H]1[C@H](O)[C@H](O)[C@]2(CO)C[C@H]12 | > 10 |
| Clc1cccc(CNc2nc(Cl)nc3[nH]cnc23)c1 | > 10 |

Biological target: 5-hydroxytryptamine receptor 1B (Homo sapiens) (UniProt P28222)
Experiment: Displacement of [3H]5-CT from human 5-HT1BR expressed in HEK cell membranes at 10 uM incubated for 90 mins under dark condition by microbeta scintillation counting method relative to control
Conditions: HEK293

Chain of 5-hydroxytryptamine receptor 1B (Homo sapiens) (P28222 whole entry): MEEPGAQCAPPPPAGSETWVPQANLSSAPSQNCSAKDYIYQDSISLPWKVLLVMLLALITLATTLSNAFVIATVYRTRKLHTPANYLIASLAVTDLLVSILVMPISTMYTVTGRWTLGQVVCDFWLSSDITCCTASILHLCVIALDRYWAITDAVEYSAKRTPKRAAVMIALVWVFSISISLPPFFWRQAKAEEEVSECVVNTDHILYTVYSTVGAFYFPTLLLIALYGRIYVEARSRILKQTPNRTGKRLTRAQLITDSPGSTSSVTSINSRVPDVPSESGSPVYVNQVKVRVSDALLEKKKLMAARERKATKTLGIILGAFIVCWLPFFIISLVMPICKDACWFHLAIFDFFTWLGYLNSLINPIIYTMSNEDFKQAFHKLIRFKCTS

| Structure (SMILES) | inhibition [%] |
| --- | --- |
| CN(C)c1nc(Cl)nc2c1ncn2[C@H]1[C@H](O)[C@H](O)[C@]2(CO)C[C@H]12 | < 50 |
| Clc1cccc(CNc2nc(Cl)nc3[nH]cnc23)c1 | < 50 |

Biological target: 5-hydroxytryptamine receptor 1E (Homo sapiens) (UniProt P28566)
Experiment: Displacement of [3H]5-HT from human 5-HT1E receptor expressed in HEK cell membranes at 10 uM incubated for 90 mins under dark condition by microbeta scintillation counting method relative to control
Conditions: HEK293

Chain of 5-hydroxytryptamine receptor 1E (Homo sapiens) (P28566 whole entry): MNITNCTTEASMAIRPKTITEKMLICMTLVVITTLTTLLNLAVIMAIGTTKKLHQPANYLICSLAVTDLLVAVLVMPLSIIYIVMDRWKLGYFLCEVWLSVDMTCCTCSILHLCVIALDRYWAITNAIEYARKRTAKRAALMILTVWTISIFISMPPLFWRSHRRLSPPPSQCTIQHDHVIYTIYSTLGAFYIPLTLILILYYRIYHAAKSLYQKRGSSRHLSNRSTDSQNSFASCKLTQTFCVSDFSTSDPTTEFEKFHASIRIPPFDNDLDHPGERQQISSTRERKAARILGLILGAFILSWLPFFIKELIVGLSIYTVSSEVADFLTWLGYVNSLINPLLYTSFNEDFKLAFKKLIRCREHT

| Structure (SMILES) | inhibition [%] |
| --- | --- |
| CN(C)c1nc(Cl)nc2c1ncn2[C@H]1[C@H](O)[C@H](O)[C@]2(CO)C[C@H]12 | < 50 |
| Clc1cccc(CNc2nc(Cl)nc3[nH]cnc23)c1 | < 50 |

Biological target: 5-hydroxytryptamine receptor 7 (Homo sapiens) (UniProt P34969)
Experiment: Displacement of [3H]LSD from human 5-HT7A receptor expressed in HEK cell membranes at 10 uM incubated for 90 mins under dark condition by microbeta scintillation counting method relative to control
Conditions: HEK293

Chain of 5-hydroxytryptamine receptor 7 (Homo sapiens) (P34969 whole entry): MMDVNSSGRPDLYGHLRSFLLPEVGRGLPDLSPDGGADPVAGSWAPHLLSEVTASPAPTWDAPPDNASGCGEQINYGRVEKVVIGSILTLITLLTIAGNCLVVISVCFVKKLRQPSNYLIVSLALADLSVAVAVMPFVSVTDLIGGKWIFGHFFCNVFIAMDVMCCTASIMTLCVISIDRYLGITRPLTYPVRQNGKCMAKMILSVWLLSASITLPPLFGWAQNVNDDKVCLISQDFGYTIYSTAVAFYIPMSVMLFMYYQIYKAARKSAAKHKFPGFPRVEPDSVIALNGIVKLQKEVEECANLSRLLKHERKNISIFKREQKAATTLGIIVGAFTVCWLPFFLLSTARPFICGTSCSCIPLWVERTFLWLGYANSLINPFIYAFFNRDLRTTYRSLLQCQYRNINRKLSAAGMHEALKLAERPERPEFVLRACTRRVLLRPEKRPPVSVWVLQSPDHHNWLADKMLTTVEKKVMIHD

| Structure (SMILES) | inhibition [%] |
| --- | --- |
| CN(C)c1nc(Cl)nc2c1ncn2[C@H]1[C@H](O)[C@H](O)[C@]2(CO)C[C@H]12 | < 50 |
| Clc1cccc(CNc2nc(Cl)nc3[nH]cnc23)c1 | < 50 |

Biological target: T4, 5-hydroxytryptamine receptor 2C (Homo sapiens) (UniProt P28335)
T4 sequence (whole entry): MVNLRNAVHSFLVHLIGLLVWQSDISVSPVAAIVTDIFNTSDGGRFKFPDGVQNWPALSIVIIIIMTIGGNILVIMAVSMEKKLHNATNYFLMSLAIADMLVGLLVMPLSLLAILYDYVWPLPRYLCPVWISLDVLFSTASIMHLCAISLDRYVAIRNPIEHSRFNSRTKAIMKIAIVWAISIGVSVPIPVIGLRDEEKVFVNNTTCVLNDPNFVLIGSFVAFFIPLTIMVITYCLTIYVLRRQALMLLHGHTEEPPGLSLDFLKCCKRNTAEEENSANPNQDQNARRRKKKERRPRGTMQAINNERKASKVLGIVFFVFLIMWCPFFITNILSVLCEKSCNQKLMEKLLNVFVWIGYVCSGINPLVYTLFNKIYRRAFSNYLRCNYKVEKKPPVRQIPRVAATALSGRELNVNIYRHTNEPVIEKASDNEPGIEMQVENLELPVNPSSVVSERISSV
Experiment: Displacement of [3H]mesulergine from human 5-HT2CR expressed in Flp-In HEK cell membranes at 10 uM incubated for 90 mins under dark condition by microbeta scintillation counting method relative to control
Conditions: HEK293

| Structure (SMILES) | inhibition [%] |
| --- | --- |
| CN(C)c1nc(Cl)nc2c1ncn2[C@H]1[C@H](O)[C@H](O)[C@]2(CO)C[C@H]12 | > 50 |
| Clc1cccc(CNc2nc(Cl)nc3[nH]cnc23)c1 | > 50 |

Biological target: T5, 5-hydroxytryptamine receptor 3A (Homo sapiens) (UniProt P46098)
T5 sequence (whole entry): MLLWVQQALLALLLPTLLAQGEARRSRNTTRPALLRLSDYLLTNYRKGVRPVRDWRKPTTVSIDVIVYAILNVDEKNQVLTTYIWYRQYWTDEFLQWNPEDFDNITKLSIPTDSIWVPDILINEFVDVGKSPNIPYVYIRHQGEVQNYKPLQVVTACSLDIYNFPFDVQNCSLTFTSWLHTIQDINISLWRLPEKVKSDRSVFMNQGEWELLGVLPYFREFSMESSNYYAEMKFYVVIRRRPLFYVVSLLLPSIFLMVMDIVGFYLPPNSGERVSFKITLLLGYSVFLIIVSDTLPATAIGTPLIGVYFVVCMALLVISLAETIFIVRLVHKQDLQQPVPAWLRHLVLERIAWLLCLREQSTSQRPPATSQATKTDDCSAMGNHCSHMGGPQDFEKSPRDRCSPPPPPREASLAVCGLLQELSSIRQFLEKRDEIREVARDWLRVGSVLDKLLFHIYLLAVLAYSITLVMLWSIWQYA
Experiment: Displacement of [3H]GR65630 from human 5-HT3 receptor expressed in HEK-T cell membranes at 10 uM incubated for 90 mins under dark condition by microbeta scintillation counting method relative to control
Conditions: not given

| Structure (SMILES) | inhibition [%] |
| --- | --- |
| CN(C)c1nc(Cl)nc2c1ncn2[C@H]1[C@H](O)[C@H](O)[C@]2(CO)C[C@H]12 | < 50 |
| Clc1cccc(CNc2nc(Cl)nc3[nH]cnc23)c1 | < 50 |

Biological target: T6, 5-hydroxytryptamine receptor 1A (Homo sapiens) (UniProt P08908)
T6 sequence (whole entry): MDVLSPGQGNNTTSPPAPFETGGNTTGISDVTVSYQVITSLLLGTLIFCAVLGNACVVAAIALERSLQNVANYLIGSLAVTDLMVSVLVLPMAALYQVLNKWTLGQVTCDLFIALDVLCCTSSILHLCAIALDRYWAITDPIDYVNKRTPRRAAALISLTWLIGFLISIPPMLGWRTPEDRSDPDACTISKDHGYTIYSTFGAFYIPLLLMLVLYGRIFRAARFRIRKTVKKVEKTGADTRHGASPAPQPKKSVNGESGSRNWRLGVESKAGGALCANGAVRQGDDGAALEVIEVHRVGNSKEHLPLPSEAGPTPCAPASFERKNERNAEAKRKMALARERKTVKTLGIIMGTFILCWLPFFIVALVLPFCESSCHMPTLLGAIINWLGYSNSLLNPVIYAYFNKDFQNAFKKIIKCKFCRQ
Experiment: Displacement of [3H]WAY100635 from human 5-HT1AR expressed in CHO cell membranes at 10 uM incubated for 90 mins under dark condition by microbeta scintillation counting method relative to control
Conditions: not given

| Structure (SMILES) | inhibition [%] |
| --- | --- |
| CN(C)c1nc(Cl)nc2c1ncn2[C@H]1[C@H](O)[C@H](O)[C@]2(CO)C[C@H]12 | < 50 |
| Clc1cccc(CNc2nc(Cl)nc3[nH]cnc23)c1 | < 50 |

Biological target: Adenosine receptor A2a (Homo sapiens, UniProt P29274)
Experiment: Displacement of [3 H]2-[p-(2-carboxyethyl)phenyl-ethylamino]-5'-N-ethylcarboxamidoadenosine from recombinant human adenosine receptor A2A expressed in HEK293 cell membranes at 10 uM after 60 mins by liquid scintillation counting method relative to control
Conditions: not given

Chain of Adenosine receptor A2a (P29274 whole entry): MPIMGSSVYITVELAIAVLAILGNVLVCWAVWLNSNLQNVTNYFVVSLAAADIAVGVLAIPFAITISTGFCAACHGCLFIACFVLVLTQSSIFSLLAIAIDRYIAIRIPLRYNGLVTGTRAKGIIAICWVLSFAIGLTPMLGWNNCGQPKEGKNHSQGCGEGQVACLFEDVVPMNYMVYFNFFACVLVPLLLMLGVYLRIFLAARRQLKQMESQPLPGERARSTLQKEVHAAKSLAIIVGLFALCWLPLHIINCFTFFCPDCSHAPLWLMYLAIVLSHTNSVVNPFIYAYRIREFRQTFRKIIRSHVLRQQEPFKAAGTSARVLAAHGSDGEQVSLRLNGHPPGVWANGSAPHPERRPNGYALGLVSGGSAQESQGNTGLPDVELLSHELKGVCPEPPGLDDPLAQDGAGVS

| Structure (SMILES) | inhibition [%] |
| --- | --- |
| CN(C)c1nc(Cl)nc2c1ncn2[C@H]1[C@H](O)[C@H](O)[C@]2(CO)C[C@H]12 | < 10 |
| Clc1cccc(CNc2nc(Cl)nc3[nH]cnc23)c1 | 37 |

Biological target: 5-hydroxytryptamine receptor 4 (Homo sapiens) (UniProt Q13639)
Experiment: Displacement of [3H]GR113808 from human 5-HT4 receptor at 10 uM incubated for 90 mins under dark condition by microbeta scintillation counting method relative to control
Conditions: not given

Chain of 5-hydroxytryptamine receptor 4 (Homo sapiens) (Q13639 whole entry): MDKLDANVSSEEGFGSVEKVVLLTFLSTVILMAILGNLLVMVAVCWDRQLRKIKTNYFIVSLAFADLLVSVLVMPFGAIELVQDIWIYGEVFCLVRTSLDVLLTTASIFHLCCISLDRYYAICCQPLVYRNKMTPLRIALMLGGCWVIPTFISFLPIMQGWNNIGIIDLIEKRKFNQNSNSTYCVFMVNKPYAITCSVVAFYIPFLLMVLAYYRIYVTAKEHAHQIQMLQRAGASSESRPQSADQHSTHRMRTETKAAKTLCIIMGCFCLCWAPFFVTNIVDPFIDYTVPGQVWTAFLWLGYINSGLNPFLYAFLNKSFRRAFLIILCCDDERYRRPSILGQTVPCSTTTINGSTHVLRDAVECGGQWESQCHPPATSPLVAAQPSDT

| Structure (SMILES) | inhibition [%] |
| --- | --- |
| CN(C)c1nc(Cl)nc2c1ncn2[C@H]1[C@H](O)[C@H](O)[C@]2(CO)C[C@H]12 | < 50 |
| Clc1cccc(CNc2nc(Cl)nc3[nH]cnc23)c1 | < 50 |

Biological target: T7, 5-hydroxytryptamine receptor 2C (Homo sapiens, UniProt P28335)
T7 sequence (P28335 whole entry): T4 sequence (whole entry)
Experiment: Displacement of [3H]mesulergine from human 5-HT2CR expressed in Flp-In HEK cell membranes incubated for 90 mins under dark condition by microbeta scintillation counting method
Set-up: species or system HEK293
Conditions: not given

| Structure (SMILES) | Ki [µM] |
| --- | --- |
| CN(C)c1nc(Cl)nc2c1ncn2[C@H]1[C@H](O)[C@H](O)[C@]2(CO)C[C@H]12 | 8.1 |
